Measurements reported in the supplement of paper PMC11061612.

Legend:
Prexasertib = compound: COc1cccc(OCCCN)c1-c1cc(Nc2cnc(C#N)cn2)n[nH]1 [Prexasertib]; settings: max 1 µM
Outline: (§1)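 Cancer cell lines in 1536-well plates (7.5 μl DMEM/F12 or RPMI, 10% FBS) were held 24 hours at 37°C and 5% CO2 and then dosed for 72 hours at a final DMSO of typically 0.2%. Viability was taken from CellTiter-Glo 2.0 luminescence, scaled between blank-well and DMSO-well means. Curves were fitted as two-parameter logistic models with a non-linear mixed effects model, from which the single-agent IC50 was taken.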

Savolitinib = compound: C[C@@H](c1ccc2nccn2c1)n1nnc2ncc(-c3cnn(C)c3)nc21 [Savolitinib]; settings: max 1 µM
Outline: as §1

Gefitinib = compound: COc1cc2ncnc(Nc3ccc(F)c(Cl)c3)c2cc1OCCCN1CCOCC1 [Gefitinib]; settings: max 10 µM
Outline: as §1

MK-2206 = compound: NC1(c2ccc(-c3nc4ccn5c(=O)[nH]nc5c4cc3-c3ccccc3)cc2)CCC1 [MK-2206]; settings: max 10 µM
Outline: as §1

AZD7648 = compound: Cc1cc2ncnn2cc1Nc1ncc2c(n1)n(C1CCOCC1)c(=O)n2C [AZD7648]; settings: max 10 µM
Outline: as §1

Dasatinib = compound: CC1=C(C(=CC=C1)Cl)NC(=O)C2=CN=C(S2)NC3=CC(=NC(=N3)C)N4CCN(CC4)CCO [Dasatinib]; settings: max 2 µM
Outline: as §1

AZD5153 = compound: COc1nnc2ccc(N3CCC(c4ccc(OCCN5CCN(C)C(=O)[C@H]5C)cc4)CC3)nn12 [AZD5153]; settings: max 1 µM
Outline: as §1

AZD8186 = compound: C[C@@H](Nc1cc(F)cc(F)c1)c1cc(C(=O)N(C)C)cc2c(=O)cc(N3CCOCC3)oc12 [AZD8186]; settings: max 10 µM
Outline: as §1

Olaparib = compound: O=C(c1cc(Cc2n[nH]c(=O)c3ccccc23)ccc1F)N1CCN(C(=O)C2CC2)CC1 [Olaparib]; settings: max 10 µM
Outline: as §1

AZD4320 = compound: CN(CC[C@H](CSC1=CC=CC=C1)NC2=C(C=C(C=C2)S(=O)(=O)NC(=O)C3=CC=C(C=C3)N4CCC(CC4)[C@H](C5=CC=CC=C5C6=CC=C(C=C6)Cl)O)S(=O)(=O)C(F)(F)F)CCO [AZD4320]; settings: max 1 µM
Outline: as §1

Palbociclib = compound: CC(=O)c1c(C)c2cnc(Nc3ccc(N4CCNCC4)cn3)nc2n(C2CCCC2)c1=O [Palbociclib]; settings: max 10 µM
Outline: as §1

AZD1390 = compound: CC(C)n1c(=O)n(C)c2cnc3cc(F)c(-c4ccc(OCCCN5CCCCC5)nc4)cc3c21 [AZD1390]; settings: max 0.3 µM
Outline: as §1

Carboplatin = compound: C1CC(C1)(C(=O)[O-])C(=O)[O-].N.N.[Pt+2] [Carboplatin]; settings: max 10 µM
Outline: as §1

Lapatinib = compound: CS(=O)(=O)CCNCc1ccc(-c2ccc3ncnc(Nc4ccc(OCc5cccc(F)c5)c(Cl)c4)c3c2)o1 [Lapatinib]; settings: max 10 µM
Outline: as §1

Gemcitabine = compound: Nc1ccn([C@@H]2O[C@H](CO)[C@@H](O)C2(F)F)c(=O)n1 [Gemcitabine]; settings: max 0.3 µM
Outline: as §1

Doxorubicin = compound: COc1cccc2c1C(=O)c1c(O)c3c(c(O)c1C2=O)C[C@@](O)(C(=O)CO)C[C@@H]3O[C@H]1C[C@H](N)[C@H](O)[C@H](C)O1 [Doxorubicin]; settings: max 1 µM
Outline: as §1

Paclitaxel = compound: CC(=O)O[C@H]1C(=O)[C@@]2(C)[C@H]([C@H](OC(=O)c3ccccc3)[C@]3(O)C[C@H](OC(=O)[C@H](O)[C@@H](NC(=O)c4ccccc4)c4ccccc4)C(C)=C1C3(C)C)[C@]1(OC(C)=O)CO[C@@H]1C[C@@H]2O [Paclitaxel]; settings: max 3 µM
Outline: as §1

Alisertib = compound: COc1cc(Nc2ncc3c(n2)-c2ccc(Cl)cc2C(c2c(F)cccc2OC)=NC3)ccc1C(=O)O [Alisertib]; settings: max 10 µM
Outline: as §1

AZD0156 = compound: CN(C)CCCOc1ccc(-c2ccc3ncc4c(c3c2)n(C2CCOCC2)c(=O)n4C)cn1 [AZD0156]; settings: max 3 µM
Outline: as §1

AZD5363 = compound: C1CN(CCC1(C(=O)N[C@@H](CCO)C2=CC=C(C=C2)Cl)N)C3=NC=NC4=C3C=CN4 [AZD5363]; settings: max 10 µM
Outline: as §1

5-Fluorouracil = compound: O=c1[nH]cc(F)c(=O)[nH]1 [5-Fluorouracil]; settings: max 20 µM
Outline: as §1

AZD6738 = compound: C[C@@H]1COCCN1C2=NC(=NC(=C2)C3(CC3)[S@](=N)(=O)C)C4=C5C=CNC5=NC=C4 [AZD6738]; settings: max 10 µM
Outline: as §1

Trametinib = compound: CC(=O)Nc1cccc(-n2c(=O)n(C3CC3)c(=O)c3c(Nc4ccc(I)cc4F)n(C)c(=O)c(C)c32)c1 [Trametinib]; settings: max 1 µM
Outline: as §1

Taselisib = compound: Cc1nc(-c2cn3c(n2)-c2ccc(-c4cnn(C(C)(C)C(N)=O)c4)cc2OCC3)n(C(C)C)n1 [Taselisib]; settings: max 10 µM
Outline: as §1

AZD1775 = compound: C=CCn1c(=O)c2cnc(Nc3ccc(N4CCN(C)CC4)cc3)nc2n1-c1cccc(C(C)(C)O)n1 [AZD1775]; settings: max 3 µM
Outline: as §1

SN-38 = compound: CCc1c2c(nc3ccc(O)cc13)-c1cc3c(c(=O)n1C2)COC(=O)[C@]3(O)CC [SN-38]; settings: max 0.3 µM
Outline: as §1

SRA737 = compound: N#Cc1cnc(Nc2cc(NC[C@H]3CNCCO3)c(C(F)(F)F)cn2)cn1 [SRA737]; settings: max 10 µM
Outline: as §1

Crizotinib = compound: C[C@@H](Oc1cc(-c2cnn(C3CCNCC3)c2)cnc1N)c1c(Cl)ccc(F)c1Cl [Crizotinib]; settings: max 10 µM
Outline: as §1

[1] = compound: O=C(Nc1ccc2[nH]nc(-c3ccncc3)c2c1)[C@@H]1CCN(CC(=O)N2CCN(c3ccc(-c4ncccn4)cc3)CC2)C1; settings: max 5 µM
Outline: as §1

Venetoclax = compound: CC1(C)CCC(CN2CCN(c3ccc(C(=O)NS(=O)(=O)c4ccc(NCC5CCOCC5)c([N+](=O)[O-])c4)c(Oc4cnc5[nH]ccc5c4)c3)CC2)=C(c2ccc(Cl)cc2)C1 [Venetoclax]; settings: max 1 µM
Outline: as §1

Selumetinib = compound: Cn1cnc2c(F)c(Nc3ccc(Br)cc3Cl)c(C(=O)NOCCO)cc21 [Selumetinib]; settings: max 10 µM
Outline: as §1

AZD2811 = compound: CCN(CCO)CCCOc1ccc2c(Nc3cc(CC(=O)Nc4cccc(F)c4)[nH]n3)ncnc2c1 [AZD2811]; settings: max 1 µM
Outline: as §1

SG3199 = compound: CC1=CN2[C@@H](C1)C=NC3=CC(=C(C=C3C2=O)OC)OCCCCCOC4=C(C=C5C(=C4)N=C[C@@H]6CC(=CN6C5=O)C)OC [SG3199]; settings: max 0.001 µM
Outline: as §1

AZD5991 = compound: Cc1c2c(nn1C)CSCc1cc(n(C)n1)CSc1cc(c3ccccc3c1)OCCCc1c(C(=O)O)n(C)c3c-2c(Cl)ccc13 [AZD5991]; settings: max 1 µM
Outline: as §1

Etoposide = compound: COc1cc([C@@H]2c3cc4c(cc3[C@@H](O[C@@H]3O[C@@H]5CO[C@@H](C)O[C@H]5[C@H](O)[C@H]3O)[C@H]3COC(=O)[C@H]23)OCO4)cc(OC)c1O [Etoposide]; settings: max 10 µM
Outline: as §1

Cell Line | IC50, cell viability 72 h (Prexasertib) [µM] | IC50, cell viability 72 h (Savolitinib) [µM] | IC50, cell viability 72 h (Gefitinib) [µM] | IC50, cell viability 72 h (MK-2206) [µM] | IC50, cell viability 72 h (AZD7648) [µM] | IC50, cell viability 72 h (Dasatinib) [µM] | IC50, cell viability 72 h (AZD5153) [µM] | IC50, cell viability 72 h (AZD8186) [µM] | IC50, cell viability 72 h (Olaparib) [µM] | IC50, cell viability 72 h (AZD4320) [µM] | IC50, cell viability 72 h (Palbociclib) [µM] | IC50, cell viability 72 h (AZD1390) [µM] | IC50, cell viability 72 h (Carboplatin) [µM] | IC50, cell viability 72 h (Lapatinib) [µM] | IC50, cell viability 72 h (Gemcitabine) [µM] | IC50, cell viability 72 h (Doxorubicin) [µM] | IC50, cell viability 72 h (Paclitaxel) [µM] | IC50, cell viability 72 h (Alisertib) [µM] | IC50, cell viability 72 h (AZD0156) [µM] | IC50, cell viability 72 h (AZD5363) [µM] | IC50, cell viability 72 h (5-Fluorouracil) [µM] | IC50, cell viability 72 h (AZD6738) [µM] | IC50, cell viability 72 h (Trametinib) [µM] | IC50, cell viability 72 h (Taselisib) [µM] | IC50, cell viability 72 h (AZD1775) [µM] | IC50, cell viability 72 h (SN-38) [µM] | IC50, cell viability 72 h (SRA737) [µM] | IC50, cell viability 72 h (Crizotinib) [µM] | IC50, cell viability 72 h [1] [µM] | IC50, cell viability 72 h (Venetoclax) [µM] | IC50, cell viability 72 h (Selumetinib) [µM] | IC50, cell viability 72 h (AZD2811) [µM] | IC50, cell viability 72 h (SG3199) [µM] | IC50, cell viability 72 h (AZD5991) [µM] | IC50, cell viability 72 h (Etoposide) [µM]
NCI-H1435 (Non-Small Cell Lung Carcinoma) | > 1 | > 1 | > 10 | > 10 | > 10 | > 2 | > 1 | > 10 | > 10 | 0.621 | > 10 | > 0.3 | > 10 | > 10 | > 0.3 | > 1 | > 3 | > 10 | > 3 | > 10 | > 20 | > 10 | > 1 | > 10 | > 3 | > 0.3 | > 10 | > 10 | > 5 | > 1 | > 10 | > 1 | > 0.001 | > 1 | > 10
NCI-H1648 (Lung Adenocarcinoma) | 0.156 | > 1 | 2.34 | 9.83 | > 10 | 0.373 | 0.203 | > 10 | > 10 | > 1 | > 10 | > 0.3 | > 10 | 1.99 | > 0.3 | > 1 | 0.0124 | 7.89 | > 3 | 9.59 | > 20 | 4.85 | 0.0289 | 0.146 | 1.31 | 0.0596 | > 10 | 8.99 | > 5 | > 1 | > 10 | > 1 | > 0.001 | > 1 | > 10
